The test system of one data set is caspase-3. The conditions noted are these: cited from earlier work; for caspase-3 activation: tumor cells and neurons.
For data set [1], the system named is MDA-MB-435 or MDA-MB231 or SKOV-3 cells. The data set can be described thus: Tumor cell viability (MTS) assay. In kind it is cell-based. Here is the method:
The cytotoxicity of test compounds is determined using the CellTiter96 Aqueous One Solution Assay (Promega, Madison, Wis.). Briefly, MDA-MB-435 or MDA-MB231 or SKOV-3 cells were seeded in a 96-well plate at a density of 2000 cells/well on the day prior to treatment with sigma-2 receptor selective ligands. […] The plate is read at 490 nm in a Victor3 plate reader (PerkinElmer Life and Analytical Sciences, Shelton, Conn.). The EC^50 value, defined as the concentration of the sigma ligand required to inhibit cell viability by 50% relative to untreated cells, is determined from the dose response curve for each cell line. Siramesine is accepted as an agonist.

In the next data set the test system is neurons. The note with it: 24 hours treatment; cited from earlier work.
Data set [2] deals with Abeta oligomer-induced synapse loss in primary hippocampal neurons. The experiment in a line: Abeta 1-42 oligomer binding and synapse loss assay. The data set is classed as cell-based, rat.
Procedure: Primary hippocampal neuronal culture is established as in the membrane trafficking assay above. […] Pretreatment with test compounds for 1 hr and addition of Abeta oligomers or no oligomer (vehicle alone) is followed by incubation for an additional 23 hrs.
The plates are then washed 3× with PBS for 5 min each. The plates are blocked at RT for 1 hr in 5% goat serum and 0.5% Triton X-100 in PBS. Primary antibodies (anti-MAP 2 polyclonal, Millipore #AB5622 and anti-Beta Amyloid 6E10 monoclonal, Covance #SIG-39300, at 1 microgram/ml, and rabbit polyclonal anti-synaptophysin, Anaspec, at 0.2 microgram/ml) were diluted 1:1000 in 5% goat serum with PBS. Primary antibodies are incubated overnight at 4° C. The plates are then washed 3× with PBS for 5 min each. Secondary antibodies (Alex Flor 488 polyclonal, Invitrogen #A11008 and Alexa Flor 647 monoclonal, Invitrogen #A21235) are diluted 1:1000 in 5% goat serum with PBS. Secondary antibodies are incubated at RT for 1 hr. The plates are washed once with PBS. DAPI (4′,6-diamidino-2-phenylindole, Invitrogen) is then applied at 0.03 ug/ul and incubated at RT for 5 min, then washed with PBS.
The nature of data set [3]: Mouse liver microsome (MLM) stability. In kind it is in vitro ADME. The note with it: mouse, microsomes. Here is the method:
A first pharmacokinetic study was performed in microsomes of mice mouse liver microsomes, MLM) by a commercial contract research organization. The studies were performed according to Obach, R. S et al. (1997) J. Pharmacol. Exp. Ther., 283: 46-58, which is incorporated herein by reference.

For a further data set, the target named is Sigma-2 receptor. The data set can be described thus: Sigma-2 receptor competitive radioligand binding assay. More on the design: species or system rat. The conditions noted are these: read-out: Sigma-2 Receptor Affinity, Ki.
The target in a further data set is potassium channel hERG (Homo sapiens (Human), UniProt Q12809). The experiment in a line: In vitro toxicity, hERG inhibition. The data set is classed as biochemical. Background: hERG is a cardiac potassium channel; its block is linked to QT prolongation.
Data set [4] has as its system Abeta oligomer-induced membrane trafficking deficits in primary hippocampal neurons. The experiment in a line: Membrane trafficking/exocytosis (MTT) assay. The note with it: read-out: Membrane Trafficking EC50; compound dosed prior to Abeta oligomer addition.
Procedure: Primary hippocampal neurons from E18 Sprague-Dawley rat embryos were plated at optimized concentrations in 384 well plates in NB media (Invitrogen). Neurons were maintained in cultures for 3 weeks, with twice weekly feeding of NB media with N2 supplement (Invitrogen).
MTT reagent (3-(4,5-dimethylthizaol-2yl)-2,5diphenyl tetrazolium bromide) (Roche Molecular Biochemicals) was reconstituted in phosphate buffered saline to 5 mg/mL. 10 μL of MTT labeling reagent is added to each well and incubated at 37° C. for 1 h, then imaged. Exocytosis was assessed by automated microscopy and image processing to quantify the amount of endocytosed and exocytosed formazan.
Each assay plate was formatted so that compounds are tested with and without Abeta oligomer on each plate. […] Reduced formazan was first visible in intracellular vesicles. […] The dye precipitated in the aqueous environment of the culture and formed needle-shaped crystals on the surface of the neuron.
A further data set concerns neuronal cultures. The experiment in a line: Functional neuronal phenotype in neuronal cultures. The data set is classed as cell-based. More on the design: key: Antagonist: antagonists (block Abeta signaling); Agonist: agonists (block Abeta signaling with U-shaped dose-response curve and toxicity at high doses); Inactive: inactive (no effect in neuronal cultures).
The next data set has as its target Sigma-1 receptor. The data set can be described thus: Sigma-1 receptor competitive radioligand binding assay. The conditions noted are these: read-out: Sigma-1 Receptor Affinity, Ki.

“Also recorded” adds a separate entry of the source.

Chain of potassium channel hERG (Q12809 whole entry): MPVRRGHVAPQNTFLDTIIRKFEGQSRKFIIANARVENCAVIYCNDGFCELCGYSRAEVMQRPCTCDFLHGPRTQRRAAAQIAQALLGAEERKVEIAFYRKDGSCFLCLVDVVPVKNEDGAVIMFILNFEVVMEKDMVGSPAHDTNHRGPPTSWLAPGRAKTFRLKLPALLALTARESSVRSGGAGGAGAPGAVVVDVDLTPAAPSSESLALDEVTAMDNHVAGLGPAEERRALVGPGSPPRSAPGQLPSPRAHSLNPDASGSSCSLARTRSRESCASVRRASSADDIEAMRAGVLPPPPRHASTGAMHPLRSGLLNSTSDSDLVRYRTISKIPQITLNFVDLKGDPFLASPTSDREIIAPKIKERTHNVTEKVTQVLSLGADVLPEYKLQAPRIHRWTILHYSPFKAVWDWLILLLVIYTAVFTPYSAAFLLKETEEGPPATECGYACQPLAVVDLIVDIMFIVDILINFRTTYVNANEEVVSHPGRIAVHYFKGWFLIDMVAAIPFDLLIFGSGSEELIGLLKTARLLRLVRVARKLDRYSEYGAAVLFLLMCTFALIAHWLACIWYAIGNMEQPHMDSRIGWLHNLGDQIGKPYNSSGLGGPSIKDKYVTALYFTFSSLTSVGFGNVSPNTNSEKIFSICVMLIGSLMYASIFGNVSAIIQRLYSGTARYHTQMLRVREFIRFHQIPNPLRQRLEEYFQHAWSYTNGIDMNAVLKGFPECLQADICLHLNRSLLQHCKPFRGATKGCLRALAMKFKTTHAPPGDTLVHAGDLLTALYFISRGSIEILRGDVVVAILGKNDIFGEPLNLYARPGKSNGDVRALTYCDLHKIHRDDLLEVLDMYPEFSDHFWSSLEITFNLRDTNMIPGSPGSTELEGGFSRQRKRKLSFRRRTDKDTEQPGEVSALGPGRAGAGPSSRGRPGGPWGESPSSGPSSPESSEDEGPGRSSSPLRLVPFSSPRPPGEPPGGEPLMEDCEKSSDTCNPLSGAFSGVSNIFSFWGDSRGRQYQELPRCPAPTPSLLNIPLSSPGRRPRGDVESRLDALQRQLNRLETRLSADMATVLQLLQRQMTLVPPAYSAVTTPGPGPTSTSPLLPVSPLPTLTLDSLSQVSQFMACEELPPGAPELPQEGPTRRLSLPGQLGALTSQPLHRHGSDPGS
Procedure for Sigma-1 receptor: Radioligand binding assays for Sigma-1 receptors and Sigma-2 receptors were carried out by a commercial contract research organization. For Sigma-1 binding, various concentrations of test compounds from 100 μM to 1 nM were used to displace 8 nM [^3H](+)pentazocine from endogenous receptors on Jurkat cell membranes (Ganapathy M E et al. 1991, J Pharmacol. Exp. Ther. 289:251-260). 10 μM Haloperidol was used to define non-specific binding. […] 10 μM Haloperidol was used to define non-specific binding. Reactions were terminated by rapid filtration through Whatman GF/C filters using a Brandel 12R cell harvester followed by two washes with ice-cold buffer. Radioactivity on the dried filter discs was measured using a liquid scintillation analyzer (Tri-Carb 2900TR; PerkinElmer Life and Analytical Sciences). The displacement curves were plotted and the Ki values of the test ligands for the receptor subtypes were determined using GraphPad Prism (GraphPad Software Inc., San Diego, Calif.). The percentage specific binding was determined by dividing the difference between total bound (disintegrations per minute) and nonspecific bound (disintegrations per minute) by the total bound (disintegrations per minute).
Procedure for Sigma-2 receptor: Radioligand binding assays for Sigma-1 receptors and Sigma-2 receptors were carried out by a commercial contract research organization. For Sigma-1 binding, various concentrations of test compounds from 100 μM to 1 nM were used to displace 8 nM [^3H](+)pentazocine from endogenous receptors on Jurkat cell membranes (Ganapathy M E et al. 1991, J Pharmacol. Exp. Ther. 289:251-260). 10 μM Haloperidol was used to define non-specific binding. For Sigma-2 receptors various concentrations of test compounds from 100 μM to 1 nM were used to displace 5 nM [^3H] […] (Bowen W D, et al. 1993, Mol. Neuropharmcol 3:117-126). 10 μM Haloperidol was used to define non-specific binding. Reactions were terminated by rapid filtration through Whatman GF/C filters using a Brandel 12R cell harvester followed by two washes with ice-cold buffer. Radioactivity on the dried filter discs was measured using a liquid scintillation analyzer (Tri-Carb 2900TR; PerkinElmer Life and Analytical Sciences). The displacement curves were plotted and the Ki values of the test ligands for the receptor subtypes were determined using GraphPad Prism (GraphPad Software Inc., San Diego, Calif.). The percentage specific binding was determined by dividing the difference between total bound (disintegrations per minute) and nonspecific bound (disintegrations per minute) by the total bound (disintegrations per minute).
The affinity of candidate sigma-2 ligand compounds at sigma-1 and sigma-2 receptors was also determined by displacement of different known labeled sigma-2 or sigma-1 ligands. Filtration assays were conducted according the previously published procedure (Xu, et al., 2005). Test compounds were dissolved in N,N-Dimethylformamide (DMF), dimethyl sulfoxide (DMSO) or ethanol and then diluted in 50 mM Tris-HCl pH 7.4 buffer containing 150 mM NaCl and 100 mM EDTA. Membrane homogenates were made from guinea pig brain for sigma-1 binding assay and rat liver for sigma-2 binding assay. Membrane homogenates were diluted with 50 mM Tris-HCl buffer, pH 8.0 and incubated at 25° C. in a total volume of 150 uL in 96 well plates with the radioligand and test compounds with concentrations ranging from 0.1 nM to 10 uM. After incubation was completed, the reactions were terminated by the addition of 150 uL of ice-cold wash buffer (10 mM Tris HCl, 150 mM NaCl, pH 7.4) using a 96 channel transfer pipette (Fisher Scientific, Pittsburgh, Pa.) and the samples harvested and filtered rapidly through 96 well fiber glass filter plate (Millipore, Billerica, Mass.) that had been presoaked with 100 uL of 50 mM Tris-HCl buffer. Each filter was washed four times with 200 uL of ice-cold wash buffer (10 mM Tris-HCl, 150 mM NaCl, pH 7.4). A Wallac 1450 MicroBeta liquid scintillation counter (Perkin Elmer, Boston, Mass.) was used to quantitate the bound radioactivity.
Nonspecific binding was determined from samples that contained 10 uM of cold haloperidol.
The binding affinity, Ki values was calculated using the method of Cheng and Prusoff.
Procedure for neuronal cultures: Neuronal cultures are treated with various concentrations of sigma compounds for 24 hours and nuclear intensity compared to vehicle is measured.
Procedure for potassium channel hERG: In vitro toxicity for Test Compounds is tested in a number of standard assays.

As to `COc1ccc(C)cc1NC(=O)OC1C[C@H]2CCC[C@@H](C1)N2CCCCCCN` (stereo partly drawn) [SV-119], the caspase-3 activation result with caspase-3 is “activate caspase-3 in tumor cells and neurons”. In addition, in [1], the Action entry is “Full agonist”. For the same compound, the IC50 (commonly the concentration that inhibits the measured activity by half) in [1] (read-out: IC50, 48 hrs., Tumor cell viability, 48 hrs) is 21700 ± 2900 nM. Moreover, the “nuclear morphology / nuclear intensity in neurons” value in the data set on neurons is “cause significant abnormal nuclear morphology in neurons”.
`CCC(Oc1ccc(Cl)cc1)C(=O)OC1CC2CCC(C1)N2C` (stereo not drawn) [SM-21]: in data set [2], the “elimination of Abeta oligomer-induced synapse loss” value is on record as “only weakly active in eliminating synapse loss” and the synapse loss recovery stood at 20%.
Take `COc1cc2c(cc1OC)CN(CCCCNC(=O)c1cc(C)ccc1OC)CC2` [RHM-1, N-[4-(3,4-dihydro-6,7-dimethoxyisoquinolin-2(1H)-yl)butyl]-2-methoxy-5-methylbenzamide]: the caspase-3 activation entry in the data set on caspase-3 was “do not induce caspase-3 activity”. Further, the “inhibition of caspase-3 activation” value in the data set with caspase-3 (tumor cells) is “inhibits the activation in tumor cells”. Moreover, the Action result in data set [1] is “Antagonist”. Moreover, the “nuclear morphology / nuclear intensity in neurons” value in the data set on neurons is “do not decrease nuclear intensity”.
In the case of `C[C@H](CCc1ccc(O)c(OC(C)(C)C)c1)N1Cc2c(F)ccc(F)c2C1` [60A], the “Mouse liver microsomes, MLM t½” value in data set [3] is 5 min. Further, the Ki (as a rule, a dissociation constant, usually derived from enzyme kinetics or from competition with a known ligand) on Sigma-2 receptor stood at 1600 nM; on Sigma-1 receptor, 410 nM. Also, the IC50 on potassium channel hERG was 100000 nM. Besides, in data set [4], the EC50 (in general, the concentration at which the effect is half-maximal) is more than 20000 nM. In addition, the neuronal phenotype result with neuronal cultures is on record as “Antagonist”.
In the case of `CC(C)(CCc1ccc(O)c(OC(F)(F)F)c1)N1Cc2cccc(F)c2C1` [compound 54], the “Mouse liver microsomes, MLM t½” value in [3] is recorded as 12 min. The values for the inhibition constant (Ki) at Sigma-2 receptor and at Sigma-1 receptor were 18 nM and 74 nM, respectively. Moreover, at potassium channel hERG, the IC50 was found to be 2500 nM. In addition, the EC50 in data set [4] was 6500 nM. Also, the neuronal phenotype result in the data set with neuronal cultures was “Antagonist”.
With `C[C@H](CCc1ccc(F)cc1)N1Cc2cc3c(cc2C1)OCO3` [compound 23], the “Mouse liver microsomes, MLM t½” value in data set [3] stood at 5 min. The Ki stood at 13 nM at Sigma-2 receptor and 16 nM at Sigma-1 receptor. The compound also displayed an IC50 at potassium channel hERG of 370 nM. In data set [4], the EC50 was less than 250 nM. Further, the neuronal phenotype entry with neuronal cultures is “Antagonist”.
For the compound `COc1cc(CCC(C)(C)N2Cc3cccc(C(=O)N4CCN(C(C)=O)CC4)c3C2)ccc1O` [compound 83], the “Mouse liver microsomes, MLM t½” value in data set [3] is 336 min. The Ki at Sigma-2 receptor and on Sigma-1 receptor was 10000 nM in each case. Further, half-maximal inhibition on potassium channel hERG (IC50) required 10000 nM. The half-maximal effective concentration (EC50) in data set [4] came to 100000 nM. Besides, the neuronal phenotype result in the data set with neuronal cultures is on record as “Inactive”.
On to `CC(C)Oc1cc(CCC(C)(C)N2Cc3cccc(F)c3C2)ccc1O` [compound 28], for which the “Mouse liver microsomes, MLM t½” value in data set [3] came to 4 min. Further, the inhibitory constant (Ki) on Sigma-2 receptor amounted to 11 nM; on Sigma-1 receptor, 120 nM. This compound gave an IC50 against potassium channel hERG of 9600 nM. Also, the 50% effective concentration (EC50) in data set [4] fell in the range of 70 to 80 nM. Besides, the neuronal phenotype result in the data set on neuronal cultures is “Antagonist”.
As for `C[C@H](CCc1ccc(Cl)c(Cl)c1)N1Cc2ccc3ccccc3c2C1` [compound 19], in [3], the “Mouse liver microsomes, MLM t½” value is 25 min. Also, the Ki at Sigma-2 receptor was 1.8 nM; at Sigma-1 receptor, 69 nM. Further, on potassium channel hERG, half-maximal inhibition (IC50) was put at 98000 nM. The 50% effective concentration (EC50) in data set [4] was 270 nM. Besides, the neuronal phenotype entry in the data set on neuronal cultures is reported as “Weak”.
As for `COc1cc(CCC(C)(C)N2Cc3cccc(C(=O)NCCN(C)C)c3C2)ccc1O` [compound 78], the “Mouse liver microsomes, MLM t½” value in data set [3] was determined as 450 min. Also, the Ki at Sigma-2 receptor and on Sigma-1 receptor was 10000 nM throughout. This compound gave an IC50 at potassium channel hERG of 110000 nM. The EC50 in data set [4] was determined as 8800 nM. The neuronal phenotype entry in the data set with neuronal cultures was “Neuroactive”.
For `CC(C)(C)Oc1cc(CCC(C)(C)N2Cc3cccc(C(=O)O)c3C2)ccc1O` [compound 75], the “Mouse liver microsomes, MLM t½” value in data set [3] worked out at 508 min. The Ki on Sigma-2 receptor was more than 10000 nM; on Sigma-1 receptor, 10000 nM. At potassium channel hERG, this compound registered an IC50 of 100000 nM. Besides, in data set [4], the EC50 was more than 20000 nM. Besides, in the data set on neuronal cultures, the neuronal phenotype result is on record as “Inactive”.
Take `Fc1ccc(-n2cc(CCCCN3CCC4(CC3)OCc3ccccc34)c3ccccc32)cc1` [Siramesine]: in the data set with caspase-3, the caspase-3 activation entry was “activate caspase-3 in tumor cells and neurons; also recorded: induces caspase-3 activity”. In data set [1], the Action result is “Full agonist”. Further, the “nuclear morphology / nuclear intensity in neurons” value in the data set with neurons was “cause significant abnormal nuclear morphology in neurons”.
Consider `CC(C)(CCc1ccc(O)c(OC(F)(F)F)c1)N1Cc2cccc(C(=O)O)c2C1` [compound 56], for which the “Mouse liver microsomes, MLM t½” value in [3] came out at 617 min. The Ki on Sigma-2 receptor and at Sigma-1 receptor was 10000 nM throughout. 49000 nM corresponded to half-maximal inhibition against potassium channel hERG (IC50). In addition, in data set [4], the concentration giving a half-maximal response (EC50) was 300 nM. Also, the neuronal phenotype result in the data set with neuronal cultures is “Weak and Antagonist”.
With `CCCN(CCC)CCc1ccc(OC)c(OCCc2ccccc2)c1` [NE-100], the “elimination of Abeta oligomer-induced synapse loss” value in [2] is given as “completely eliminated synapse loss”.
For the compound `C[C@H](CCc1ccc(O)c(OC(F)(F)F)c1)N1Cc2ccc(F)cc2C1` [compound 31], the “Mouse liver microsomes, MLM t½” value in [3] is 6 min. Besides, the Ki at Sigma-2 receptor was found to be 58 nM; at Sigma-1 receptor it was 3.7 nM. Further, the midpoint of inhibition at potassium channel hERG, the IC50, lay at 1900 nM. Also, the EC50 in data set [4] is less than 250 nM. Moreover, the neuronal phenotype result in the data set with neuronal cultures is recorded as “Antagonist”.
In the case of `O=C(CCCN1CCC(O)(c2ccc(Cl)cc2)CC1)c1ccc(F)cc1` [haloperidol], the “elimination of Abeta oligomer-induced synapse loss” value in data set [2] was “completely eliminated synapse loss”.
Regarding `CC(C)Oc1ccc(CCC(C)(C)N2Cc3ccc(F)cc3C2)cc1OC(C)C` [compound 42], the “Mouse liver microsomes, MLM t½” value in data set [3] is given as 14 min. The results for the Ki on Sigma-2 receptor and on Sigma-1 receptor were 6.2 nM and 100 nM, respectively. Further, the half-inhibitory concentration (IC50) against potassium channel hERG was 800 nM. The EC50 in data set [4] was more than 20000 nM. In addition, the neuronal phenotype result in the data set on neuronal cultures is listed as “Agonist”.
For `CC(C)(C)Oc1cc(CCC(C)(C)N2Cc3c(F)ccc(F)c3C2)ccc1O` [compound 74], the “Mouse liver microsomes, MLM t½” value in data set [3] is listed as 21 min. Further, the values for the Ki on Sigma-2 receptor and at Sigma-1 receptor were 550 nM and 2300 nM, respectively. Further, the IC50 at potassium channel hERG is 100000 nM. Moreover, the EC50 in [4] was determined as 300 nM. The neuronal phenotype entry in the data set with neuronal cultures is “Antagonist”.

Source of the values: patent publication US9796672B2, “Isoindoline compositions and methods for treating neurodegenerative disease” (Cognition Therapeutics, Inc., priority 2014, dated 2017).
